Measured values reported in patent US5506221A, “Contignasterol, and related 3-alpha hydroxy-6-alpha hydroxy-7-beta hydroxy-15-keto-14-beta steroids useful as anti-inflammatory and anti-thrombosis agents” (University of British Columbia, priority 1994, dated 1996).
Entries after “also recorded” stand apart in the source; their conditions may differ.

Assays:
human basophils = test: histamine release from human basophils/leukocytes challenged with anti-human IgE; assay type: cell-based
Protocol: A major test to confirm the anti-allergic property of contignasterols is the histamine release from human basophils. […] We used […] human blood leukocytes from allergic (allergy to grass pollen) individuals and prepared leukocytes. The leukocytes were then challenged with anti-human IgE for the release of histamine. The leukocytes were either exposed to 50 μg/ml of contignasterol or saline alone (control). The amount of histamine released from the leukocytes was measured using radioenzymatic assay.

tracheal tissues = test: ovalbumin (OA)-induced contraction of tracheal tissues from sensitized guinea pigs; assay type: cell-based
Description: We have used the contignasterol as defined in paragraph one of the Summary to block bronchoconstriction induced in guinea pigs. Guinea pigs were sensitized to ovalbumine (OA) that can serve as an antigen. The trachea from these animals after exposure to the antigen (OA) contracted in a similar manner as to in vivo situation.

platelets [1] = test: platelet aggregation in response to collagen; assay type: cell-based
Description: (§1) PAF is a local mediator of thrombosis. Similarly, collagen exposure of vessel walls leads to the formation of […] clot in the vessels. Therefore, prevention of the formation of blood clots has direct implication in the treatment of thrombosis and associated cardiovascular diseases.
(§2) PAF and collagen were used at their maximal concentrations to which induced 100% aggregation of platelets.

platelets [2] = test: platelet aggregation in response to PAF; assay type: cell-based
Description: as §1, §2

[3] = test system: allergeninduced challenge; test: relative potencies of isomers of contignasterol against allergen-induced challenge; settings: for % Inhibition: allergen-induced challenge; for inhibition: concentration not given
Description: Table 4 illustrates the relative potencies of different isomers of contignasterol against allergeninduced challenge.

rat mast cells = settings: induced by anti-IgE; cited from earlier work

CC(C)C1CC(O)OC([C@@H](C)[C@H]2CC(=O)[C@@H]3[C@@H]4[C@@H](O)[C@H](O)[C@H]5[C@@H](O)[C@H](O)CC[C@]5(C)[C@H]4CC[C@]23C)C1 (stereo partly shown) [Compound 1, contignasterol]
inhibition of histamine release from human basophils, in words (human basophils; basophils present in the blood): inhibits histamine release | Histamine Release (% of Total) (human basophils; contignasterol 50 μg/ml, challenge with anti-IgE, control (no drug) 36.4, basal release 9.8): 19.0 % of Total | Contraction (% of Maximal) (tracheal tissues; contignasterol 1 μg/ml, ovalbumine 0.001 μg/ml, control 6.6): 0.00 % of Maximal | Contraction (% of Maximal) (tracheal tissues; contignasterol 1 μg/ml, ovalbumine 0.01 μg/ml, control 12): -7.7 % of Maximal | Contraction (% of Maximal) (tracheal tissues; contignasterol 1 μg/ml, ovalbumine 0.1 μg/ml, control 28.6): -8.5 % of Maximal | Contraction (% of Maximal) (tracheal tissues; contignasterol 1 μg/ml, ovalbumine 1 μg/ml, control 34.0): 27.5 % of Maximal | Contraction (% of Maximal) (tracheal tissues; contignasterol 1 μg/ml, ovalbumine 10 μg/ml, control 46.0): 30 % of Maximal | Contraction (% of Maximal) (tracheal tissues; contignasterol 1 μg/ml, ovalbumine 100 μg/ml, control 55.7): 39 % of Maximal | Contraction (% of Maximal) (tracheal tissues; contignasterol 1 μg/ml, ovalbumine 300 μg/ml, control 56): 39.7 % of Maximal | Contraction (% of Maximal) (tracheal tissues; contignasterol 10 μg/ml, ovalbumine 0.001 μg/ml, control 6.6): 0.00 % of Maximal | Contraction (% of Maximal) (tracheal tissues; contignasterol 10 μg/ml, ovalbumine 0.01 μg/ml, control 12): -8.0 % of Maximal | Contraction (% of Maximal) (tracheal tissues; contignasterol 10 μg/ml, ovalbumine 0.1 μg/ml, control 28.6): -8.0 % of Maximal | Contraction (% of Maximal) (tracheal tissues; contignasterol 10 μg/ml, ovalbumine 1 μg/ml, control 34.0): 6.0 % of Maximal | Contraction (% of Maximal) (tracheal tissues; contignasterol 10 μg/ml, ovalbumine 10 μg/ml, control 46.0): 16.0 % of Maximal | Contraction (% of Maximal) (tracheal tissues; contignasterol 10 μg/ml, ovalbumine 100 μg/ml, control 55.7): 16.6 % of Maximal | Contraction (% of Maximal) (tracheal tissues; contignasterol 10 μg/ml, ovalbumine 300 μg/ml, control 56): 29.6 % of Maximal | Contraction (% of Maximal) (tracheal tissues; contignasterol 50 μg/ml, ovalbumine 0.001 μg/ml, control 6.6): 0.00 % of Maximal | Contraction (% of Maximal) (tracheal tissues; contignasterol 50 μg/ml, ovalbumine 0.01 μg/ml, control 12): 0.0 % of Maximal | Contraction (% of Maximal) (tracheal tissues; contignasterol 50 μg/ml, ovalbumine 0.1 μg/ml, control 28.6): 0.0 % of Maximal | Contraction (% of Maximal) (tracheal tissues; contignasterol 50 μg/ml, ovalbumine 1 μg/ml, control 34.0): 5.5 % of Maximal | Contraction (% of Maximal) (tracheal tissues; contignasterol 50 μg/ml, ovalbumine 10 μg/ml, control 46.0): 11.1 % of Maximal | Contraction (% of Maximal) (tracheal tissues; contignasterol 50 μg/ml, ovalbumine 100 μg/ml, control 55.7): 16.6 % of Maximal | Contraction (% of Maximal) (tracheal tissues; contignasterol 50 μg/ml, ovalbumine 300 μg/ml, control 56): 22 % of Maximal | effect on antigen-induced tracheal/airway smooth muscle contraction, in words (tracheal tissues; tissue pretreated, exposed to antigen (OA)): did not significantly contract; also recorded: inhibited airway smooth muscle contraction | activity at 5 µg/mL (platelets [1]; Platelet, contignasterol 5 μg/ml, collagen at maximal concentration, read-out: Aggregation (% of Control), Collagen): 70% | activity at 30 µg/mL (platelets [1]; Platelet, contignasterol 30 μg/ml, collagen at maximal concentration, read-out: Aggregation (% of Control), Collagen): 0% | activity at 50 µg/mL (platelets [1]; Platelet, contignasterol 50 μg/ml, collagen at maximal concentration, read-out: Aggregation (% of Control), Collagen): 0% | inhibition of platelet aggregation caused by collagen, in words (platelets [1]; collagen): inhibited aggregation of platelets; also recorded: inhibits platelet aggregation | inhibition of platelet aggregation caused by PAF, in words (platelets [2]; PAF): inhibited aggregation of platelets; also recorded: inhibits platelet aggregation | activity at 5 µg/mL (platelets [2]; Platelet, contignasterol 5 μg/ml, PAF at maximal concentration, read-out: Aggregation (% of Control), PAF): 90% | activity at 10 µg/mL (platelets [2]; Platelet, contignasterol 10 μg/ml, PAF at maximal concentration, read-out: Aggregation (% of Control), PAF): 56% | activity at 20 µg/mL (platelets [2]; Platelet, contignasterol 20 μg/ml, PAF at maximal concentration, read-out: Aggregation (% of Control), PAF): 44% | activity at 30 µg/mL (platelets [2]; Platelet, contignasterol 30 μg/ml, PAF at maximal concentration, read-out: Aggregation (% of Control), PAF): 28% | activity at 50 µg/mL (platelets [2]; Platelet, contignasterol 50 μg/ml, PAF at maximal concentration, read-out: Aggregation (% of Control), PAF): 0% | % Inhibition ([3]; 10 μM): 43% | inhibition [3]: 47%

CC(C)C1CC(O)OC([C@@H](C)[C@H]2CC(=O)[C@H]3[C@@H]4[C@@H](O)[C@H](O)[C@H]5[C@@H](O)[C@H](O)CC[C@]5(C)[C@H]4CC[C@]23C)C1 (stereo partly shown) [Compound 2, 14-epicontignasterol]
% Inhibition ([3]; 10 μM): 25% | inhibition [3]: 25%

COC1CC(C(C)C)CC([C@@H](C)[C@H]2CC(=O)[C@@H]3[C@@H]4[C@@H](O)[C@H](O)[C@H]5[C@@H](O)[C@H](O)CC[C@]5(C)[C@H]4CC[C@]23C)O1 (stereo partly shown) [Compound 3]
% Inhibition ([3]; 10 μM): 12% | change in potency on conversion of hemiacetal to methyl acetal, in words ([3]; 10 μM, methyl acetal (3) versus contignasterol (1)): significant decrease in the potency | inhibition [3]: 12%

CC(C)C[C@]1(O)C[C@@H](C)[C@H]2[C@@H]1C(=O)[C@@H]1[C@@H]3[C@@H](O)[C@H](O)[C@H]4C[C@H](O)CC[C@]4(C)[C@H]3CC[C@]21C [xestobergsterol A, 23S-16β, 23-cyclo-3α,6α,7β,23-tetrahydroxy-5α,14β-cholestan-15-one]
inhibition of histamine release, in words (rat mast cells): potent inhibitors of histamine release

CC(C)C[C@]1(O)C[C@@H](C)[C@H]2[C@@H]1C(=O)[C@@H]1[C@@H]3[C@@H](O)[C@H](O)[C@H]4C[C@H](O)[C@@H](O)[C@@H](O)[C@]4(C)[C@H]3CC[C@]21C [xestobergsterol B, 23S-16β,23-cyclo-1β,2β,3α,6α,7β,23-hexahydroxy-5α,14β-cholestan-15-one]
inhibition of histamine release, in words (rat mast cells): potent inhibitors of histamine release
